According to patent US11655308B2, “HM-3 fusion protein and application thereof” (TASLY BIOPHARMACEUTICALS CO., LTD., priority 2017, dated 2023):

How the values were obtained:
type-II CIA mice = assay: Chronic inflammation model of type-II CIA in mice; format: in vivo, Balb/c mice; conditions: for ankle width / arthritis scoring / paw circumference / weight of mice / paw weight / spleen weight: day 60; for ankle width: model G2 4.83±0.20; for arthritis scoring: model G2 11.5±1.7; for paw circumference: model G2 13.62; for weight of mice: model G2 19.5±1.6; for paw weight: model G2 219.3±20.6; for spleen weight: model G2 114.6±14.5
Protocol: Experimental method: Balb/c mice were taken and immunized for the first time. The concentration of type-II bovine collagen was 4 mg/mL. On the day of the experiment (day 0), complete Freund's adjuvant (CFA) and CII solution were mixed evenly in equal volume and emulsified. Excepting for the normal control group of Balb/c mice, mice in each group were sensitized by intracutaneous injection of 50 μL emulsifier at the end of tails. 21 days later, mice were re-immunized with the same dose of emulsifier at the end of tails, and incomplete Freund's adjuvant (IFA) served as an adjuvant at this time. Redness and swelling other arthritic symptoms appeared on toe joints of mice models approximately on the 29th day of the experiment, indicating successful modeling.
Animals in the modeling group on the 30th day of the experiment were randomly divided into:
There were 12 groups in total, and there were 8 pieces of mice in remaining each group excepting for 12 pieces in G1 (normal control group) and G2 (model group).
Measurement of mice weight: mice were weighed by an electronic balance every two days.
Measurement of sole thickness: the thickness of left, right and hind soles for each mouse was measured by a vernier caliper every two days.
Measurement of ankle joint width: the width of left and right ankle joints for each mouse was measured by vernier caliper every two days.
Arthritis index (AI) score: the severity of arthritis for each mouse was evaluated by a paw joint scoring method. 0: no redness and swelling; 1: redness and swelling of little toe joints; 2: redness and swelling of toe joints and toes; 3: redness and swelling of the portion below ankle joints; 4: redness and swelling of toe joints, toes and ankle joints. Scoring was performed once every two days until the end of the experiment.
Blood was collected from the orbit and serum was separated. After mice were killed by cervical dislocation, spleen and thymus were separated and weighed to calculate a spleen coefficient, and then the spleen and thymus were fixed in formalin stationary liquid.

human macrophage U937 = assay: TNF-α production by LPS-induced human macrophage U937 (ELISA); format: cell-based
Protocol: Experimental method: Human macrophage U937 was cultured in RPMI-1640 medium containing 10% fetal bovine serum and double antibodies in a constant temperature incubator at 37° C. under the condition of 5% CO2, and the medium was replaced every 2 days. U937 cells in the logarithmic phase were collected, resuspended and adjusted to the concentration of 5×10^5/mL. 100 μL of cells was added to each well of a 96-well plate overnight and induced with LPS (1 μg/mL) in the following day, where n=3. At the same time, the cells were treated with agents, and respectively divided into a positive control group adalimumab, an HM-3 polypeptide group, an mPEG-SC-HM-3 polypeptide group, an HM-3 fusion protein (TSL-1, TSL-2, TSL-3, TSL-4) group, and the specific dosing scheme was shown in Table 5.
48 h after the agents worked, culture medium was collected and centrifuged, and supernatant was taken to measure the content of TNF-α therein by ELISA. Test results were expressed as mean±SD, and statistical T test was performed. *P<0.05 indicates significant difference, **P<0.01 indicates extremely significant difference. Based upon the results, the efficacy of the HM-3 fusion protein against rheumatoid arthritis was screened.

[1] = test system: transgenic blood vessel fluorescent zebrafish; assay: In vivo anti-angiogenesis in zebrafish (SIVs area); parameters: area of SIVs: unit not given here; conditions: for inhibition rate of angiogenesis / area of SIVs: 24 h; for area of SIVs: normal control group 53193
Protocol: Experimental method: transgenic blood vessel fluorescent zebrafish was randomly selected and put into a six-well plate with 30 fish per well, and intravenously injected HM-3 polypeptide, TSL-1 fusion protein, TSL-2 fusion protein, TSL-3 fusion protein and TSL-4 fusion protein respectively in accordance with the dosage of 20 ng/tail and 66 ng/tail; the dosage was […] in Avastin positive control and the injection volume was 20 nL/tail; the zebrafish injected 20 nL/tail of buffer solution served as a solvent control group, and the zebrafish without any treatment served as a normal control group. 10 pieces of zebrafish were randomly selected from each group after processed for 24 h to observe the intestinal vessels of the transgenic zebrafish by a fluorescence microscope, as well as to take and maintain images. Image analysis was performed by Nikon MS-Elements D 3.10 to calculate the area (S) of SIVs (subintestinal vessel, SIV). The calculation formula of angiogenesis inhibition rate was as follows: Angiogenesis inhibition rate (%)=(1−S(Test sample group)/S(Normal control group))×100%
Statistical analysis was performed by variance analysis and Dunnett's T-test and the results were expressed as Mean±SD, where p<0.05 indicates a significant difference.

[2] = G6 TSL-4 50 mg/kg SC 1 time/5 d, 3 times
[3] = G7 TSL-4 25 mg/kg SC 1 time/5 d, 3 times
[4] = G8 TSL-4 25 mg/kg SC 1 time/7 d, 2 times
[5] = G10 TSL-4 12.5 mg/kg SC 1 time/5 d, 3 times

mIgG4-Fc-(GGGGS)3-HM-3 [TSL-4]
ankle width (type-II CIA mice; [2]): 3.96±0.09 mm
arthritis scoring (type-II CIA mice; [2]): 6.5±1.1
paw circumference (type-II CIA mice; [2]): 10.80±0.26 mm
weight of mice (type-II CIA mice; [2]): 20.8 ± 1.8 g
paw weight (type-II CIA mice; [2]): 176.2 ± 8.9 mg
ankle width (type-II CIA mice; [3]): 3.98±0.08 mm
arthritis scoring (type-II CIA mice; [3]): 6.6±1.1
paw circumference (type-II CIA mice; [3]): 10.87±0.14 mm
weight of mice (type-II CIA mice; [3]): 21.1 ± 1.6 g
spleen weight (type-II CIA mice; [3]): 95.1 ± 9.5 mg
paw weight (type-II CIA mice; [3]): 176.4 ± 9.7 mg
ankle width (type-II CIA mice; [4]): 4.00±0.16 mm
arthritis scoring (type-II CIA mice; [4]): 7.1±0.6
paw circumference (type-II CIA mice; [4]): 10.97±0.32 mm
weight of mice (type-II CIA mice; [4]): 20.8 ± 1.7 g
spleen weight (type-II CIA mice; [4]): 95.8 ± 11.4 mg
paw weight (type-II CIA mice; [4]): 177.1 ± 7.8 mg
ankle width (type-II CIA mice; [5]): 4.26±0.13 mm
arthritis scoring (type-II CIA mice; [5]): 8.6±1.8
paw circumference (type-II CIA mice; [5]): 11.64±0.19 mm
weight of mice (type-II CIA mice; [5]): 21.5 ± 1.5 g
spleen weight (type-II CIA mice; [5]): 97.5 ± 5.1 mg
therapeutic effect compared with group G3 (positive Adalimumab group) (type-II CIA mice; groups G4 (HM-3), G10 (TSL-4 12.5 mg/kg once for 5 days, 3 times)): slightly lower than that of the group G3
therapeutic effect compared with group G3 (positive Adalimumab group) (type-II CIA mice; groups G5 (mPEG-SC-HM-3), G6, G7, G8 (TSL-4)): better than the group G3
inhibitory effect on TNF-α compared with HM-3 and mPEG-SC-HM-3 (human macrophage U937): much better than that of polypeptide HM-3 and mPEG-SC-HM-3
TNF-α content in cell supernatant (human macrophage U937; 9 μM, LPS 1 μg/mL, 48 h, negative group 77.6±19.6): 22.2 ± 8.9 pg/mL
inhibiting effect on angiogenesis ([1]; 20 ng/tail): significant inhibitory effect
inhibition rate of angiogenesis ([1]; 20 ng/tail iv): 36%
area of SIVs ([1]; 20 ng/tail iv): 33869
inhibition rate of angiogenesis ([1]; 66 ng/tail iv): 47%
area of SIVs ([1]; 66 ng/tail iv): 28297
